The supplement of paper PMC5908809

What was measured:
[1] = test system: normal NK cells expanded with K562-aAPC; test: percent inhibition of viability; higher = more inhibition; conditions: 72 h, IL-2 2.5 ng/mL
Procedure: (§1)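 Drug sensitivity and resistance testing on K562-aAPC-expanded normal NK cells: 5 concentrations (10-fold steps over a 10,000-fold range), 72 h at 37 °C, viability by CellTiter-Glo normalised to DMSO and benzethonium chloride controls; DSS from the fitted curve.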

DERL-7 (IL-2 2.5 ng/mL) [2] = test: as above; conditions: 72 h
IMC-1 (IL-2 20 ng/mL) [3] = test: as above; conditions: 72 h
KAI3 (IL-2 2.5 ng/mL) [4] = test: as above; conditions: 72 h
KHYG-1 (IL-2 2.5 ng/mL) [5] = test: as above; conditions: 72 h
NK-92 (IL-2 2.5 ng/mL) [6] = test: as above; conditions: 72 h
NK-YS (IL-2 2.5 ng/mL) [7] = test: as above; conditions: 72 h
NKL (IL-2 2.5 ng/mL) [8] = test: as above; conditions: 72 h
SNK-6 (IL-2 2.5 ng/mL) [9] = test: as above; conditions: 72 h
YT (IL-2 2.5 ng/mL) [10] = test: as above; conditions: 72 h
[11] = test system: normal primary NK cells, pool 1 (3 donors) (IL-2 2.5 ng/mL); test: as above; conditions: 72 h
[12] = test system: normal primary NK cells, pool 1 (3 donors), resting (IL-2 0 ng/mL); test: as above; conditions: 72 h
[13] = test system: normal primary NK cells, pool 2 (3 donors) (IL-2 2.5 ng/mL); test: as above; conditions: 72 h
[14] = test system: normal primary NK cells, pool 3 (3 donors) (IL-2 2.5 ng/mL); test: as above; conditions: 72 h
[15] = test system: normal NK cells expanded with K562-aAPC; test: drug sensitivity score (DSS) (DSS units); higher = more sensitive; extreme values may be limits of the assay; conditions: 72 h; IL-2 2.5 ng/mL
Procedure: as §1

DERL-7 (IL-2 2.5 ng/mL) [16] = test: as above; conditions: 72 h
IMC-1 (IL-2 20 ng/mL) [17] = test: as above; conditions: 72 h
KAI3 (IL-2 2.5 ng/mL) [18] = test: as above; conditions: 72 h
KHYG-1 (IL-2 2.5 ng/mL) [19] = test: as above; conditions: 72 h
NK-92 (IL-2 2.5 ng/mL) [20] = test: as above; conditions: 72 h
NK-YS (IL-2 2.5 ng/mL) [21] = test: as above; conditions: 72 h
NKL (IL-2 2.5 ng/mL) [22] = test: as above; conditions: 72 h
SNK-6 (IL-2 2.5 ng/mL) [23] = test: as above; conditions: 72 h
YT (IL-2 2.5 ng/mL) [24] = test: as above; conditions: 72 h
[25] = test system: normal primary NK cells, pool 1 (3 donors) (IL-2 2.5 ng/mL); test: as above; conditions: 72 h
[26] = test system: normal primary NK cells, pool 1 (3 donors), resting (IL-2 0 ng/mL); test: as above; conditions: 72 h
[27] = test system: normal primary NK cells, pool 2 (3 donors) (IL-2 2.5 ng/mL); test: as above; conditions: 72 h
[28] = test system: normal primary NK cells, pool 3 (3 donors) (IL-2 2.5 ng/mL); test: as above; conditions: 72 h

CC[C@]1(O)C[C@H]2CN(CCc3c([nH]c4ccccc34)[C@@](C(=O)OC)(c3cc4c(cc3OC)N(C=O)[C@H]3[C@@](O)(C(=O)OC)[C@H](OC(C)=O)[C@]5(CC)C=CCN6CC[C@]43[C@@H]65)C2)C1 [Vincristine] (max concentration tested 1000 nM)
percent inhibition of viability [%]
Conditions	0.1 nM	1 nM	10 nM	100 nM	1000 nM
DERL-7 (IL-2 2.5 ng/mL) [2]	-4.76	-3.31	99.7	100	99.9
IMC-1 (IL-2 20 ng/mL) [3]	-6.56	-3.8	99.6	101	101
KAI3 (IL-2 2.5 ng/mL) [4]	-2.89	0.47	50	71.7	82.8
KHYG-1 (IL-2 2.5 ng/mL) [5]	-4.8	0.56	99.8	108	109
NK-92 (IL-2 2.5 ng/mL) [6]	0.11	-12.7	50.9	101	106
NK-YS (IL-2 2.5 ng/mL) [7]	-8.13	-3.11	72.6	72.9	87.9
NKL (IL-2 2.5 ng/mL) [8]	-4.74	5.25	97.5	99.9	101
SNK-6 (IL-2 2.5 ng/mL) [9]	-5.32	2.61	81.6	86.6	96.8
YT (IL-2 2.5 ng/mL) [10]	-6.99	-4.04	97.3	106	106
[1]	-6.33	-6.29	31.6	59	62.6
[11]	-8.19	4.79	8.62	16.3	23.7
[12]	-21.8	5.88	11	33.2	38.4
[13]	-7.02	11	16.4	18.7	25.8
[14]	-10	9.15	8.72	4.62	15.8

Conditions	drug sensitivity score
DERL-7 (IL-2 2.5 ng/mL) [16]	30.1
IMC-1 (IL-2 20 ng/mL) [17]	30.1
KAI3 (IL-2 2.5 ng/mL) [18]	20.7
KHYG-1 (IL-2 2.5 ng/mL) [19]	30.5
NK-92 (IL-2 2.5 ng/mL) [20]	24.3
NK-YS (IL-2 2.5 ng/mL) [21]	24.4
NKL (IL-2 2.5 ng/mL) [22]	30.9
SNK-6 (IL-2 2.5 ng/mL) [23]	27.4
YT (IL-2 2.5 ng/mL) [24]	29.8
[15]	15.5
[25]	2.75
[26]	6.94
[27]	4.98
[28]	0.39

O=C(CCCCCCC(=O)Nc1ccccc1)NO [Vorinostat] (max concentration tested 10000 nM)
percent inhibition of viability [%]
Conditions	1 nM	10 nM	100 nM	1000 nM	10000 nM
DERL-7 (IL-2 2.5 ng/mL) [2]	-1.03	-2.59	-8.59	72	101
IMC-1 (IL-2 20 ng/mL) [3]	-3.93	-0.96	-3.21	10.4	101
KAI3 (IL-2 2.5 ng/mL) [4]	-1.17	1.24	28.6	72.4	106
KHYG-1 (IL-2 2.5 ng/mL) [5]	-10.8	-5.48	-3.11	83.4	108
NK-92 (IL-2 2.5 ng/mL) [6]	-12.1	-8.53	8.96	76.6	107
NK-YS (IL-2 2.5 ng/mL) [7]	-9.89	-6.61	-3.67	40.2	105
NKL (IL-2 2.5 ng/mL) [8]	-8.87	-13.6	15.1	78.1	107
SNK-6 (IL-2 2.5 ng/mL) [9]	1.27	-7.67	9.77	59.8	100
YT (IL-2 2.5 ng/mL) [10]	-0.8	-1.86	3.47	27.2	106
[1]	-0.79	-2.42	2.48	56.2	100
[11]	10.5	10	21.7	67.8	98.3
[12]	-1.81	11.6	10.4	71.9	90.8
[13]	-5.53	-2.6	-3.11	42.6	96.4
[14]	-8.36	-6.48	0.69	14.9	98.3

Conditions	drug sensitivity score
DERL-7 (IL-2 2.5 ng/mL) [16]	13.7
IMC-1 (IL-2 20 ng/mL) [17]	7.28
KAI3 (IL-2 2.5 ng/mL) [18]	17.3
KHYG-1 (IL-2 2.5 ng/mL) [19]	15.2
NK-92 (IL-2 2.5 ng/mL) [20]	15.4
NK-YS (IL-2 2.5 ng/mL) [21]	10.9
NKL (IL-2 2.5 ng/mL) [22]	16.4
SNK-6 (IL-2 2.5 ng/mL) [23]	13
YT (IL-2 2.5 ng/mL) [24]	9.63
[15]	12.2
[25]	15.7
[26]	14.8
[27]	10.8
[28]	7.93

Oc1nc(-c2ccc(C(F)(F)F)cc2)nc2c1CSCC2 [XAV-939] (max concentration tested 10000 nM)
percent inhibition of viability [%]
Conditions	1 nM	10 nM	100 nM	1000 nM	10000 nM
DERL-7 (IL-2 2.5 ng/mL) [2]	-0.97	2.31	-5.81	-0.61	-5.6
IMC-1 (IL-2 20 ng/mL) [3]	-0.75	0.78	6.56	9.99	39.2
KAI3 (IL-2 2.5 ng/mL) [4]	-2.16	1.91	4.79	4.07	5.97
KHYG-1 (IL-2 2.5 ng/mL) [5]	-8.26	-1.11	3.24	1.73	10.4
NK-92 (IL-2 2.5 ng/mL) [6]	-10.9	2.21	17.2	22	31.4
NK-YS (IL-2 2.5 ng/mL) [7]	-12.6	-2.95	-1.3	-3.02	5.39
NKL (IL-2 2.5 ng/mL) [8]	1.91	-6.23	10.7	20.1	4.9
SNK-6 (IL-2 2.5 ng/mL) [9]	-1.06	-8.2	12.5	35.6	76
YT (IL-2 2.5 ng/mL) [10]	4.14	5.64	7.84	-1.3	6.37
[1]	1.61	2.89	1.43	14.1	19.3
[11]	7.73	0.81	-0.78	0.58	4.2
[12]	-4.7	-1.64	-3.21	-28.2	-2.43
[13]	-8.38	-12	-5.14	5.25	5.51
[14]	-11	-5.69	-2.72	0.89	10.2

Conditions	drug sensitivity score
DERL-7 (IL-2 2.5 ng/mL) [16]	0
IMC-1 (IL-2 20 ng/mL) [17]	3.24
KAI3 (IL-2 2.5 ng/mL) [18]	0
KHYG-1 (IL-2 2.5 ng/mL) [19]	0.01
NK-92 (IL-2 2.5 ng/mL) [20]	5.52
NK-YS (IL-2 2.5 ng/mL) [21]	0
NKL (IL-2 2.5 ng/mL) [22]	0.48
SNK-6 (IL-2 2.5 ng/mL) [23]	8.49
YT (IL-2 2.5 ng/mL) [24]	0
[15]	1.76
[25]	0
[26]	0
[27]	0
[28]	0

c1ccc(Cn2c(-c3ccc(OC[C@H](C4CCNCC4)n4c(-c5ccccc5)nc5ccccc54)cc3)nc3ccccc32)cc1 [deltarasin] (max concentration tested 10000 nM)
percent inhibition of viability [%]
Conditions	1 nM	10 nM	100 nM	1000 nM	10000 nM
DERL-7 (IL-2 2.5 ng/mL) [2]	-6.29	6.05	-2.6	15.6	100
IMC-1 (IL-2 20 ng/mL) [3]	-1.41	-1.69	-5.88	-8.23	100
KAI3 (IL-2 2.5 ng/mL) [4]	1.58	6.95	3.87	19.1	99.1
KHYG-1 (IL-2 2.5 ng/mL) [5]	-3.81	-4.92	-1.42	4.21	99.4
NK-92 (IL-2 2.5 ng/mL) [6]	-6.78	-14.8	-7.87	17.8	98.7
NK-YS (IL-2 2.5 ng/mL) [7]	1.38	0.11	0.9	9.01	99.1
NKL (IL-2 2.5 ng/mL) [8]	-1.26	-0.19	0.54	13.1	100
SNK-6 (IL-2 2.5 ng/mL) [9]	-2.79	1.66	-4.21	-2.37	100
YT (IL-2 2.5 ng/mL) [10]	-7.64	-4.86	-5.15	6.64	99
[1]	-6.73	-5.61	-6.67	-4.59	100
[11]	-6.29	-12.3	-0.84	3.6	100
[12]	-29	-22.3	-17.1	22.4	100
[13]	3.52	-1.56	-7.68	10.8	100
[14]	-5.09	-3.8	-9.07	2.9	101

Conditions	drug sensitivity score
DERL-7 (IL-2 2.5 ng/mL) [16]	8.12
IMC-1 (IL-2 20 ng/mL) [17]	5
KAI3 (IL-2 2.5 ng/mL) [18]	8.58
KHYG-1 (IL-2 2.5 ng/mL) [19]	6.1
NK-92 (IL-2 2.5 ng/mL) [20]	8.37
NK-YS (IL-2 2.5 ng/mL) [21]	6.93
NKL (IL-2 2.5 ng/mL) [22]	7.72
SNK-6 (IL-2 2.5 ng/mL) [23]	5.39
YT (IL-2 2.5 ng/mL) [24]	6.49
[15]	5.21
[25]	6.08
[26]	9.04
[27]	7.32
[28]	6.03
